Results reported in US20040010038A1, “Propargylamino indan derivatives and propargylamino tetralin derivatives as brain-selective MAO inhibitors” (priority 2002, published 2004).
Structures can show the parent of a compound that is named as a salt. Where two headings read alike, the source gives them in different places.

Experiments:
MAO-A [1] = target: T1, MAO-A (Rattus norvegicus, UniProt P21396); assay: Inhibition of MAO activity in vitro (5-HT as substrate); type: biochemical
T1 construct: The MAO enzyme source was a homogenate of rat brain in 0.3 M sucrose 1:20 w/v; from tissue; host or cells: rat brain homogenate
T1 sequence (P21396 1-526): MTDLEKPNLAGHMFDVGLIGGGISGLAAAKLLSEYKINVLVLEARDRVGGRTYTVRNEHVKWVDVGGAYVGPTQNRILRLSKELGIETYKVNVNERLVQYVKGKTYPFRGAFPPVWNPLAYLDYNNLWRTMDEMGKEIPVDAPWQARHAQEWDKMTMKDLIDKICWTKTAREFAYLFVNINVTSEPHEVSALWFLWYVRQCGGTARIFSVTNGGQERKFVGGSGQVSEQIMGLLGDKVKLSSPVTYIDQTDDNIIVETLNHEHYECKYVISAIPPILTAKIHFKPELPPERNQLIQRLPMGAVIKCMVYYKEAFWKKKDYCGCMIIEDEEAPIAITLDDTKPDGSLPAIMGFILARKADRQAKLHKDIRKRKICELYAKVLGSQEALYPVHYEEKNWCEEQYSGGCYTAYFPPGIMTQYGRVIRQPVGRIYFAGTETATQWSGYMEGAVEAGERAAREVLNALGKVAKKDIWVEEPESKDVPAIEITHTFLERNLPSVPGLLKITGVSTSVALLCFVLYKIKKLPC
Experimental: (§1) Inhibition of MAO Activity In Vitro Experimental Protocol
(§2) The reaction was then stopped by addition of citric acid. Radioactivity indicates the production of 5-HT and PEA metabolites formed as a result of MAO activity.
(§3) A mixture of toluene: ethyl acetate (1:1) was added to the reaction and mixed for 10 minutes, followed by 5 minutes of centrifugation at 1760 g. The upper phase was taken for radioactive determination by liquid scintillation spectrometry.

MAO-B [2] = target: T2, MAO-B (Rattus norvegicus, UniProt P19643); assay: Inhibition of MAO activity in vitro (PEA as substrate); type: biochemical
T2 construct: The MAO enzyme source was a homogenate of rat brain in 0.3 M sucrose 1:20 w/v; from tissue; host or cells: rat brain homogenate
T2 sequence (P19643 1-520): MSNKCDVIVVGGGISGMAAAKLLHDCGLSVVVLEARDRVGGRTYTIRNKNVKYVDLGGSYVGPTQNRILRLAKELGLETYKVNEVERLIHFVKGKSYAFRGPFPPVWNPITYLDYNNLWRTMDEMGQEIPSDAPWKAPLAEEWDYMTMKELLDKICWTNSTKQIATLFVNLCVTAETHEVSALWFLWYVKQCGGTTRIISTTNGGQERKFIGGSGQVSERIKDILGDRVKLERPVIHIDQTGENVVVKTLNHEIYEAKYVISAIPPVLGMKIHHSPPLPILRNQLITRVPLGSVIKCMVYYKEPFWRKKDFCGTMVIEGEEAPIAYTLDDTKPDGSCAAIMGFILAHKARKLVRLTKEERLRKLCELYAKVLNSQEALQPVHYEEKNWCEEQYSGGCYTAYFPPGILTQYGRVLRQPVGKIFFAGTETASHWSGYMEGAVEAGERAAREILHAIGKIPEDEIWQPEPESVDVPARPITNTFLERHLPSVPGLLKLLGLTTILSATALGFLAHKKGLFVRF
Experimental: as §1, §2, §3

MAO-A [3] = target: T1, MAO-A; assay: Inhibition of MAO activity in vivo, MAO-A; conditions: tissue not stated; for inhibition at 10 µmol/kg: 10 μmol/kg (3.2-4 mg/kg), acute
MAO-B [4] = target: T2, MAO-B; assay: Inhibition of MAO activity in vivo, MAO-B; conditions: tissue not stated; for inhibition at 10 µmol/kg: 10 μmol/kg (3.2-4 mg/kg), acute
MAO-B [5] = target: T2, MAO-B; assay: Inhibition of MAO activity in vivo, MAO-B
Experimental: (§4) Inhibition of MAO Activity In Vivo: Chronic Treatment Experimental Protocol
(§5) Rats were treated with the test compounds (Table 5) at several dose levels by oral administration, one dose daily for 7-21 days, and decapitated 2 hours after the last dose. The activities of MAO-A and MAO-B were determined in the brain, liver and intestine as described in the previous example. Inhibition of MAO activity was calculated by dividing MAO activity in the treated rats by MAO activity in the control rats (saline treated, MAO activity in these rats was taken as 100%).
as §3

MAO-A [6] = target: T1, MAO-A; assay: Inhibition of MAO activity in vivo, MAO-A
Experimental: as §4, §5, §3

[7] = rat brain homogenate, 60 min pre-incubation at 37° C., 14C 5-HT substrate, read-out: In vitro IC50 A
[8] = rat brain homogenate, 60 min pre-incubation at 37° C., 14C PEA substrate, read-out: In vitro IC50 B
[9] = oral, 150 μmol/kg, 7 days, tissue not stated
[10] = oral, 1 mg/kg (2.9 μmol/kg), 7 days, tissue not stated
[11] = oral, 15 mg/kg (44 μmol/kg), 7 days, tissue not stated

| Compound | IC50 (MAO-A [1]; [7]) [µM] | IC50 (MAO-B [2]; [8]) [µM] | also measured |
| --- | --- | --- | --- |
| C#CCN(C)C1CCc2cc(O)c(O)cc2C1 (centres unmarked) [Cmpd 139, 6-(methyl-prop-2-ynylamino)-2,3-tetralindiol] | 4.5 | 41 |  |
| C#CCN(C)C1CCc2c(O)cccc21 (racemic) [Cmpd 117, 1-(methyl-prop-2-ynylamino)-4-indanol] | 0.0083 | 0.07 |  |
| C#CCN(C)[C@@H]1CCc2ccc(OC(=O)c3ccccc3C)cc21 [Cmpd 132] | 1.1 | 9.9 | inhibition at 10 µmol/kg (MAO-A [3]): 41%; inhibition at 10 µmol/kg (MAO-B [4]): 37% |
| C#CCN(C)C1CCc2cc(OC(=O)c3ccccc3)c(OC(=O)c3ccccc3)cc2C1 (racemic) [Cmpd 138, 6,7-di-O-benzoyl-2-(methyl-prop-2-ynylamino)-tetralin HCl] | 1.2 | 0.4 |  |
| C#CCN(C)C1CCc2c(OC(=O)c3c(OC)cccc3OC)cccc21 (racemic) [Cmpd 121] | 0.34 | 3 |  |
| C#CCN(C)[C@H]1CCc2ccc(OC(=O)c3ccccc3)cc21 [Cmpd 127, Benzoic Acid (S)-3-(Methyl-Prop-2-Ynyl-Amino)-Indan-5-Yl Ester HCl] | 3.8 | 5.6 |  |
| C#CCN(C)C1CCc2ccc(OC(=O)c3ccccc3)cc2C1 (racemic) [Cmpd 124, 7-O-benzoyl-2-(methyl-prop-2-ynylamino)-tetralin Hcl] | 1.2 | 1.2 |  |
| C#CCN(C)C1CCc2cc(OC(=O)c3ccccc3)c(OC(=O)c3ccccc3)cc21 (racemic) [Cmpd 137, 5,6-Di-O-Benzoyl-1-(Methyl-Prop-2-Ynyl-Amino)-Indan HCl] | 1.4 | 21 |  |
| C#CCN(C)[C@@H]1CCc2ccc(OC(=O)c3c(OC)cccc3OC)cc21 [Cmpd 134] | 1.2 | 5.9 | inhibition at 10 µmol/kg (MAO-A [3]): 9%; inhibition at 10 µmol/kg (MAO-B [4]): 0% |
| C#CCN(C)C1CCc2cccc(OC(=O)N(C)CCC)c21 (centres unmarked) [Cmpd 144] | 71 | 63 |  |
| C#CCN(C)[C@@H]1CCc2ccc(OC(=O)CCCC)cc21 [Cmpd 126] | 0.058 | 0.13 |  |
| C#CCN(C)[C@H]1CCc2ccc(O)cc21 [Cmpd 113, (S)3-(methyl-prop-2-ynylamino)-5-indanol] | 12 | 23 |  |
| C#CCN(C)C1CCc2c(OC(=O)c3ccccc3)cccc21 (racemic) [Cmpd 120] | 0.13 | 0.91 |  |
| C#CCN(C)[C@@H]1CCc2ccc(O)cc21 [Cmpd 114, (R)3-(methyl-prop-2-ynylamino)-5-indanol] | 0.01 | 0.03 |  |
| C#CCN(C)[C@@H]1CCc2ccc(OC(C)=O)cc21 [Cmpd 116] | 0.035 | 0.0056 |  |
| C#CCNC1CCCc2ccc(OC(=O)N(C)CC)cc21 (centres unmarked) [Cmpd 148] | 500 | 100 |  |

| Compound | IC50 (MAO-A [1]; [7]) [µM] | IC50 (MAO-B [2]; [8]) [µM] | also measured |
| --- | --- | --- | --- |
| C#CCN(C)[C@@H]1CCc2ccc(OC(=O)N(C)CC)cc21 [Cmpd 140] |  | 12 | inhibition at 2 µmol/kg (MAO-B [5]; po, read-out: % inhibition B): 10%; inhibition at 10 µmol/kg (MAO-B [5]; po, read-out: % inhibition B): 30%; inhibition at 50 µmol/kg (MAO-B [5]; po, read-out: % inhibition B): 73%; inhibition at 2 µmol/kg (MAO-A [6]; po, read-out: % inhibition A): 6%; inhibition at 10 µmol/kg (MAO-A [6]; po, read-out: % inhibition A): 51%; inhibition at 50 µmol/kg (MAO-A [6]; po, read-out: % inhibition A): 65%; IC50 (MAO-A [1]): 4.3 µM |
| C#CCN[C@@H]1CCc2ccc(OC(=O)N(C)CC)cc21 [Cmpd 146] |  |  | inhibition at 50 µmol/kg (MAO-B [5]; oral, 50 μmol/kg, 7 days, tissue not stated, read-out: % inhibition B): 52%; inhibition at 150 µmol/kg (MAO-B [5]; [9]): 87%; inhibition at 50 µmol/kg (MAO-A [6]; oral, 50 μmol/kg, 7 days, tissue not stated, read-out: % inhibition A): 46%; inhibition at 150 µmol/kg (MAO-A [6]; [9]): 74%; inhibition at 100 µmol/kg (MAO-A [3]; oral, 100 μmol/kg, 5 days): 56%; inhibition at 100 µmol/kg (MAO-B [4]; oral, 100 μmol/kg, 5 days): 74%; IC50 (MAO-A [1]; read-out: In vitro IC50 A): 300 µM |
| C#CCN(C)C1CCc2cccc(OC(=O)N(C)CC)c21 (centres unmarked) [Cmpd 141] | 65 | 100 |  |
| C#CCN[C@@H]1CCc2ccc(OC(=O)N(C)CC)cc21 [Cmpd 147] | 550 | > 1000 |  |
| C#CCN[C@@H]1CCc2ccc(O)cc21 [Cmpd 101, (R)-3-prop-2-ynylamino-5-indanol mesylate] |  |  | inhibition at 5 mg/kg (MAO-B [5]; po, read-out: % inhibition B): 47%; inhibition at 25 mg/kg (MAO-B [5]; po, read-out: % inhibition B): 65%; inhibition at 5 mg/kg (MAO-A [6]; po, read-out: % inhibition A): 35%; inhibition at 25 mg/kg (MAO-A [6]; po, read-out: % inhibition A): 57% |
| C#CCN(C)C1CCc2c(OC(C)=O)cccc21 (racemic) [Cmpd 119] | 0.018 | 0.11 |  |
| C#CCN(C)[C@@H]1CCc2ccc(OC(=O)C(C)(C)C)cc21 [Cmpd 130] | 0.56 | 2.5 | inhibition at 10 µmol/kg (MAO-A [3]): 24%; inhibition at 10 µmol/kg (MAO-B [4]): 22% |
| C#CCN(C)C1CCc2cccc(O)c21 (racemic) [Cmpd 118, 3-(methyl-prop-2-ynylamino)-4-indanol] | 0.07 |  | IC50 (MAO-B [2]): 0.05 µM |
| C#CCN(C)C1CCc2c(OC(=O)N(C)CC)cccc21 (centres unmarked) [Cmpd 142] | 0.027 | 4 |  |
| C#CCN(C)[C@@H]1CCc2ccc(OC(=O)c3ccccc3)cc21 [Cmpd 128] | 0.2 | 1 | inhibition at 1 mg/kg (MAO-B [5]; [10]): 77%; inhibition at 5 mg/kg (MAO-B [5]; oral, 5 mg/kg (15 μmol/kg), 7 days, tissue not stated, read-out: % inhibition B): 91%; inhibition at 15 mg/kg (MAO-B [5]; [11]): 91%; inhibition at 1 mg/kg (MAO-A [6]; [10]): 87%; inhibition at 5 mg/kg (MAO-A [6]; oral, 5 mg/kg (15 μmol/kg), 7 days, tissue not stated, read-out: % inhibition A): 95%; inhibition at 15 mg/kg (MAO-A [6]; [11]): 98% |
| (S)-3-prop-2-ynylamino-5-indanol mesylate [Cmpd 100] | 500 | 300 |  |
| C#CCN(C)C1CCc2ccc(O)cc2C1 (racemic) [Cmpd 123, 7-(methyl-prop-2-ynylamino)-2-tetralinol] | 0.41 | 0.48 |  |
| C#CCN(C)C1CCc2ccc(O)cc21 (racemic) [Cmpd 112, 3-(Methyl-Prop-2-Ynyl Amino)-5-Indanol] | 0.03 | 0.01 |  |
| C#CCN(C)C1CCc2ccc(OC(=O)N(C)CCC)cc21 (centres unmarked) [Cmpd 143] | 5.6 | 9.2 |  |
| C#CCN(C)[C@H]1CCc2ccc(OC(=O)C(C)(C)C)cc21 [Cmpd 129] | 2.5 | 17 |  |
| C#CCNC1CCc2ccc(OC(=O)N(C)CC)cc2C1 (centres unmarked) [Cmpd 149] | 2 | 100 |  |
